Values after ≈ are worked out from the molar mass of the structure shown. Each block holds one molecule with its values, some of them ahead of it. Active and inactive are the calls of the source. The calls are words filed in the database; no cut-off is given here.
Experiments:
Candida albicans [1] = test: Antifungal activity against Candida albicans ATCC 10231 at 400 ug after 24 to 48 hr by disk diffusion method; assay type: functional; conditions: for zone of inhibition at 400 µg/disc: read-out: DIZ
Pseudomonas aeruginosa [2] = test: Antibacterial activity against Pseudomonas aeruginosa ATCC 15442 at 400 ug after 18 hr by disk diffusion method; assay type: functional; conditions: for zone of inhibition at 400 µg/disc: ATCC 15442, 18 h, read-out: DIZ
Candida albicans [3] = test: Antifungal activity against Candida albicans ATCC 10231 after 18 hr; assay type: functional; conditions: ATCC 10231, 18 h
Candida parapsilosis [4] = test: Antifungal activity against Candida parapsilosis ATCC 22019 at 400 ug after 24 to 48 hr by disk diffusion method; assay type: functional; conditions: for zone of inhibition at 400 µg/disc: Lodderomyces parapsilosis, read-out: DIZ
Staphylococcus aureus [5] = test: Antibacterial activity against Staphylococcus aureus ATCC 25923 after 18 hr; assay type: functional; conditions: ATCC 25923, 18 h
Pseudomonas aeruginosa [6] = test: Antibacterial activity against Pseudomonas aeruginosa ATCC 15442 after 18 hr; assay type: functional; conditions: ATCC 15442, 18 h
Staphylococcus aureus [7] = test: Antibacterial activity against Staphylococcus aureus NCTC 4163 at 400 ug after 18 hr by disk diffusion method; assay type: functional; conditions: for zone of inhibition at 400 µg/disc: NCTC 4163, 18 h, read-out: DIZ
Escherichia coli [8] = test: Antibacterial activity against Escherichia coli NCTC 8196 at 400 ug after 18 hr by disk diffusion method; assay type: functional
Bacillus subtilis [9] = test: Antibacterial activity against Bacillus subtilis ATCC 6633 after 18 hr; assay type: functional; conditions: ATCC 6633, 18 h
Candida parapsilosis [10] = test: Antifungal activity against Candida parapsilosis ATCC 22019 after 18 hr; assay type: functional; conditions: Lodderomyces parapsilosis, ATCC 22019, 18 h
Escherichia coli [11] = test: Antibacterial activity against Escherichia coli NCTC 8196 after 18 hr; assay type: functional, organism-based
Staphylococcus aureus [12] = test: Antibacterial activity against Staphylococcus aureus ATCC 29213 after 18 hr; assay type: functional; conditions: ATCC 29213, 18 h
[13] = tested on: Bordetella bronchiseptica; test: Antibacterial activity against Bordetella bronchiseptica ATCC 461 at 400 ug after 18 hr by disk diffusion method; assay type: functional
Proteus vulgaris [14] = test: Antibacterial activity against Proteus vulgaris NCTC 4635 at 400 ug after 18 hr by disk diffusion method; assay type: functional; conditions: for zone of inhibition at 400 µg/disc: NCTC 4635, 18 h, read-out: DIZ
Candida albicans [15] = test: Antifungal activity against Candida albicans ATCC 90028 at 400 ug after 24 to 48 hr by disk diffusion method; assay type: functional; conditions: for zone of inhibition at 400 µg/disc: read-out: DIZ
Staphylococcus aureus [16] = test: Antibacterial activity against Staphylococcus aureus ATCC 29213 at 400 ug after 18 hr by disk diffusion method; assay type: functional; conditions: for zone of inhibition at 400 µg/disc: ATCC 29213, 18 h, read-out: DIZ
Escherichia coli [17] = test: Antibacterial activity against Escherichia coli ATCC 10538 at 400 ug after 18 hr by disk diffusion method; assay type: functional
Enterococcus hirae [18] = test: Antibacterial activity against Enterococcus hirae ATCC 10541 at 400 ug after 18 hr by disk diffusion method; assay type: functional; conditions: for zone of inhibition at 400 µg/disc: ATCC 10541, 18 h, read-out: DIZ
[19] = tested on: Bordetella bronchiseptica; test: Antibacterial activity against Bordetella bronchiseptica ATCC 461 after 18 hr; assay type: functional, organism-based
Enterococcus hirae [20] = test: Antibacterial activity against Enterococcus hirae ATCC 10541 after 18 hr; assay type: functional; conditions: ATCC 10541, 18 h
Candida albicans [21] = test: Antifungal activity against Candida albicans ATCC 90028 after 18 hr; assay type: functional; conditions: ATCC 90028, 18 h
Escherichia coli [22] = test: Antibacterial activity against Escherichia coli ATCC 10538 after 18 hr; assay type: functional, organism-based
Staphylococcus aureus [23] = test: Antibacterial activity against Staphylococcus aureus ATCC 25923 at 400 ug after 18 hr by disk diffusion method; assay type: functional; conditions: for zone of inhibition at 400 µg/disc: ATCC 25923, 18 h, read-out: DIZ
Staphylococcus aureus [24] = test: Antibacterial activity against Staphylococcus aureus ATCC 6538P at 400 ug after 18 hr by disk diffusion method; assay type: functional; conditions: for zone of inhibition at 400 µg/disc: read-out: DIZ
Staphylococcus aureus [25] = test: Antibacterial activity against Staphylococcus aureus NCTC 4163 after 18 hr; assay type: functional; conditions: NCTC 4163, 18 h
Bacillus subtilis [26] = test: Antibacterial activity against Bacillus subtilis ATCC 6633 at 400 ug after 18 hr by disk diffusion method; assay type: functional; conditions: for zone of inhibition at 400 µg/disc: ATCC 6633, 18 h, read-out: DIZ
Escherichia coli [27] = test: Antibacterial activity against Escherichia coli ATCC 25922 at 400 ug after 18 hr by disk diffusion method; assay type: functional
Escherichia coli [28] = test: Antibacterial activity against Escherichia coli ATCC 25922 after 18 hr; assay type: functional, organism-based
Proteus vulgaris [29] = test: Antibacterial activity against Proteus vulgaris NCTC 4635 after 18 hr; assay type: functional; conditions: NCTC 4635, 18 h
Pseudomonas aeruginosa [30] = test: Antibacterial activity against Pseudomonas aeruginosa NCTC 6749 after 18 hr; assay type: functional, organism-based
Pseudomonas aeruginosa [31] = test: Antibacterial activity against Pseudomonas aeruginosa NCTC 6749 at 400 ug after 18 hr by disk diffusion method; assay type: functional, organism-based
Staphylococcus aureus [32] = test: Antibacterial activity against Staphylococcus aureus ATCC 6538P after 18 hr; assay type: functional
[33] = tested on: Human immunodeficiency virus 1; test: Antiviral activity against Human immunodeficiency virus 1 infected human MT4 cells assessed as inhibition of virus-induced cytopathogenicity after 4 days by MTT assay; assay type: functional, organism-based; conditions: Human immunodeficiency virus 1, MT4, 96 h
[34] = Cytotoxicity against Homo sapiens (human) MT4 cells after 96 hr by MTT assay; assay type: cell-based

MIC (Candida albicans [3]): 100 µg/mL (≈ 184 µM)
MIC (Staphylococcus aureus [5]): 50 µg/mL (≈ 92.2 µM)
MIC (Pseudomonas aeruginosa [6]): 25 µg/mL (≈ 46.1 µM)
MIC (Bacillus subtilis [9]): 12.5 µg/mL (≈ 23.1 µM)
MIC (Candida parapsilosis [10]): 100 µg/mL (≈ 184 µM)
MIC (Escherichia coli [11]): inactive
MIC (Staphylococcus aureus [12]): 100 µg/mL (≈ 184 µM)
MIC [19]: inactive
MIC (Enterococcus hirae [20]): 50 µg/mL (≈ 92.2 µM)
MIC (Candida albicans [21]): 100 µg/mL (≈ 184 µM)
MIC (Escherichia coli [22]): inactive
MIC (Staphylococcus aureus [25]): 50 µg/mL (≈ 92.2 µM)
MIC (Escherichia coli [28]): inactive
MIC (Proteus vulgaris [29]): 50 µg/mL (≈ 92.2 µM)
MIC (Pseudomonas aeruginosa [30]): inactive
MIC (Staphylococcus aureus [32]): 50 µg/mL (≈ 92.2 µM)
Compound: CC1(C)Cc2c(Br)c(Br)c(Br)c(OCC(O)CN3CCCCC3)c2O1 (stereo not drawn)
zone of inhibition at 400 µg/disc (Candida albicans [1]): 18 mm
zone of inhibition at 400 µg/disc (Pseudomonas aeruginosa [2]): 20 mm
zone of inhibition at 400 µg/disc (Candida parapsilosis [4]): 18 mm
zone of inhibition at 400 µg/disc (Staphylococcus aureus [7]): 18 mm
diameter of the inhibition zone (DIZ) (Escherichia coli [8]): inactive
diameter of the inhibition zone (DIZ) [13]: inactive
zone of inhibition at 400 µg/disc (Proteus vulgaris [14]): 20 mm
zone of inhibition at 400 µg/disc (Candida albicans [15]): 18 mm
zone of inhibition at 400 µg/disc (Staphylococcus aureus [16]): 16 mm
diameter of the inhibition zone (DIZ) (Escherichia coli [17]): inactive
zone of inhibition at 400 µg/disc (Enterococcus hirae [18]): 17 mm
zone of inhibition at 400 µg/disc (Staphylococcus aureus [23]): 16 mm
zone of inhibition at 400 µg/disc (Staphylococcus aureus [24]): 17 mm
zone of inhibition at 400 µg/disc (Bacillus subtilis [26]): 19 mm
diameter of the inhibition zone (DIZ) (Escherichia coli [27]): inactive
diameter of the inhibition zone (DIZ) (Pseudomonas aeruginosa [31]): inactive

Compound: CC1(C)Cc2c(Br)c(Br)c(Br)c(OCC(O)CN3CCN(c4ccc(F)cc4)CC3)c2O1 (stereo not drawn)
diameter of the inhibition zone (DIZ) (Candida albicans [1]): inactive
diameter of the inhibition zone (DIZ) (Pseudomonas aeruginosa [2]): inactive
diameter of the inhibition zone (DIZ) (Candida parapsilosis [4]): inactive
diameter of the inhibition zone (DIZ) (Staphylococcus aureus [7]): inactive
diameter of the inhibition zone (DIZ) (Escherichia coli [8]): inactive
diameter of the inhibition zone (DIZ) [13]: inactive
diameter of the inhibition zone (DIZ) (Proteus vulgaris [14]): inactive
diameter of the inhibition zone (DIZ) (Candida albicans [15]): inactive
diameter of the inhibition zone (DIZ) (Staphylococcus aureus [16]): inactive
diameter of the inhibition zone (DIZ) (Escherichia coli [17]): inactive
diameter of the inhibition zone (DIZ) (Enterococcus hirae [18]): inactive
diameter of the inhibition zone (DIZ) (Staphylococcus aureus [23]): inactive
diameter of the inhibition zone (DIZ) (Staphylococcus aureus [24]): inactive
diameter of the inhibition zone (DIZ) (Bacillus subtilis [26]): inactive
diameter of the inhibition zone (DIZ) (Escherichia coli [27]): inactive
diameter of the inhibition zone (DIZ) (Pseudomonas aeruginosa [31]): inactive

Compound: CC1(C)Cc2cccc(O)c2O1
diameter of the inhibition zone (DIZ) (Candida albicans [1]): inactive
diameter of the inhibition zone (DIZ) (Pseudomonas aeruginosa [2]): inactive
EC50 [33]: > 100 µM
diameter of the inhibition zone (DIZ) (Candida parapsilosis [4]): inactive
diameter of the inhibition zone (DIZ) (Staphylococcus aureus [7]): inactive
diameter of the inhibition zone (DIZ) (Escherichia coli [8]): inactive
CC50 at 96 h [34]: 100 µM
diameter of the inhibition zone (DIZ) [13]: inactive
diameter of the inhibition zone (DIZ) (Proteus vulgaris [14]): inactive
diameter of the inhibition zone (DIZ) (Candida albicans [15]): inactive
diameter of the inhibition zone (DIZ) (Staphylococcus aureus [16]): inactive
diameter of the inhibition zone (DIZ) (Escherichia coli [17]): inactive
diameter of the inhibition zone (DIZ) (Enterococcus hirae [18]): inactive
diameter of the inhibition zone (DIZ) (Staphylococcus aureus [23]): inactive
diameter of the inhibition zone (DIZ) (Staphylococcus aureus [24]): inactive
diameter of the inhibition zone (DIZ) (Bacillus subtilis [26]): inactive
diameter of the inhibition zone (DIZ) (Escherichia coli [27]): inactive
diameter of the inhibition zone (DIZ) (Pseudomonas aeruginosa [31]): inactive

MIC (Candida albicans [3]): 200 µg/mL (≈ 388 µM)
MIC (Staphylococcus aureus [5]): 25 µg/mL (≈ 48.4 µM)
MIC (Pseudomonas aeruginosa [6]): 12.5 µg/mL (≈ 24.2 µM)
MIC (Bacillus subtilis [9]): 12.5 µg/mL (≈ 24.2 µM)
MIC (Candida parapsilosis [10]): 100 µg/mL (≈ 194 µM)
MIC (Escherichia coli [11]): inactive
MIC (Staphylococcus aureus [12]): 25 µg/mL (≈ 48.4 µM)
MIC [19]: inactive
MIC (Enterococcus hirae [20]): 25 µg/mL (≈ 48.4 µM)
MIC (Candida albicans [21]): 200 µg/mL (≈ 388 µM)
MIC (Escherichia coli [22]): inactive
MIC (Staphylococcus aureus [25]): 50 µg/mL (≈ 96.9 µM)
MIC (Escherichia coli [28]): inactive
MIC (Proteus vulgaris [29]): 12.5 µg/mL (≈ 24.2 µM)
MIC (Pseudomonas aeruginosa [30]): inactive
MIC (Staphylococcus aureus [32]): 25 µg/mL (≈ 48.4 µM)
Compound: CC(C)NCC(O)COc1c(Br)c(Br)c(Br)c2c1OC(C)(C)C2 (stereo not drawn)
zone of inhibition at 400 µg/disc (Candida albicans [1]): 16 mm
zone of inhibition at 400 µg/disc (Pseudomonas aeruginosa [2]): 22 mm
zone of inhibition at 400 µg/disc (Candida parapsilosis [4]): 17 mm
zone of inhibition at 400 µg/disc (Staphylococcus aureus [7]): 20 mm
zone of inhibition at 400 µg/disc (Escherichia coli [8]; NCTC 8196, 18 h, read-out: DIZ): 11 mm
zone of inhibition at 400 µg/disc ([13]; ATCC 461, 18 h, read-out: DIZ): 11 mm
zone of inhibition at 400 µg/disc (Proteus vulgaris [14]): 24 mm
zone of inhibition at 400 µg/disc (Candida albicans [15]): 15 mm
zone of inhibition at 400 µg/disc (Staphylococcus aureus [16]): 20 mm
diameter of the inhibition zone (DIZ) (Escherichia coli [17]): inactive
zone of inhibition at 400 µg/disc (Enterococcus hirae [18]): 17 mm
zone of inhibition at 400 µg/disc (Staphylococcus aureus [23]): 18 mm
zone of inhibition at 400 µg/disc (Staphylococcus aureus [24]): 21 mm
zone of inhibition at 400 µg/disc (Bacillus subtilis [26]): 23 mm
diameter of the inhibition zone (DIZ) (Escherichia coli [27]): inactive
diameter of the inhibition zone (DIZ) (Pseudomonas aeruginosa [31]): inactive

From ChEMBL document CHEMBL3045826, “Synthesis of new derivatives of 2,2-dimethyl-2,3-dihydro-7-benzo[b]furanol with potential antimicrobial activity” (Med Chem Res, 2009)
